From patent US20250136641A1, “PEPTIDES AND COMPOSITIONS FOR USE IN COSMETICS, FOOD AND MEDICINE” (priority 2022, published 2025)
Ends that are not written are not given here.

Columns and labels:
[1] = system: inflammation-related genes; assay: Expression of inflammation-related genes (RT-qPCR) in HEKa cells; assay type: cell-based, human; conditions: 0.01 mg/mL peptide, vs untreated basal sample
[2] = system: inflammation-related miRNAs; assay: Expression of inflammation-related miRNAs (RT-qPCR) in HEKa cells; assay type: cell-based, human; conditions: 0.01 mg/mL peptide, 24 h, vs untreated basal sample
[3] = system: IL-8; assay: IL-8 secretion by HaCaT keratinocytes (ELISA), with or without IFNγ; assay type: cell-based, human
[4] = system: HDFa73 (HDFa from adult); assay: Telomere length in HDFa cells (qPCR); assay type: cell-based, human; conditions: 48 hours
[5] = system: Nrf2; assay: Subcellular localization of Nrf2 in HEKa cells (immunofluorescence); assay type: cell-based, human; conditions: 0.01 or 0.05 mg/mL peptide, 24 hours, vs untreated cells
[6] = system: TLR2; assay: TLR2 levels in human epidermal keratinocytes after IFNγ (ELISA); assay type: cell-based
[7] = system: catalase; assay: Levels or synthesis of catalase enzyme in HEKa cells (ELISA); assay type: cell-based, human; conditions: 24 hours
[8] = system: TRF1; assay: TRF1 levels in CHA9.3 cells (immunofluorescence); assay type: cell-based; conditions: 0.125 mg/mL peptide, 24-hour incubation, vs DMSO control
[9] = system: TRF1; assay: TRF1 foci per cell in HEKa cells (immunofluorescence); assay type: cell-based, human; conditions: basal condition, 0.005 mg/mL peptide, vs untreated
[10] = system: 53BP1; assay: DNA damage (53BP1 foci) under oxidative stress in HEKa cells; assay type: cell-based, human; conditions: 100 μM H2O2, 0.01 or 0.05 mg/mL peptide, vs cells treated only with H2O2

GYYELND-NH2 [SEQ ID NO: 2-NH2]
HMOX1 gene expression ([1]; 6 h): upregulation
IRAK3 gene expression ([1]; 6 h): upregulation
TNFAIP3 gene expression ([1]; 6 h): upregulation
TOLLP gene expression ([1]; 6 h): upregulation
CXCL8 gene expression ([1]; 24 h): downregulated
IL1B gene expression ([1]; 24 h): downregulated
IL6 gene expression ([1]; 24 h): downregulated
MMP3 gene expression ([1]; 24 h): downregulated
NFKB1 gene expression ([1]; 24 h): downregulated
NQO1 gene expression ([1]; 24 h): upregulated
TLR2 gene expression ([1]; 24 h): downregulated
TNF gene expression ([1]; 24 h): downregulated
miR-21-5p expression [2]: upregulate
miR-146a-5p expression [2]: upregulate
secretion of IL-8 under inflammatory conditions ([3]; 48 hours, 0.005, 0.01 or 0.05 mg/mL together with IFNγ at 10 ng/mL, compared to positive control (IFNγ alone)): decrease, in a dose-dependent manner
secretion of IL-8 under basal conditions ([3]; without IFNγ, all concentrations tested (SEQ ID NO: 2-NH2 0.005, 0.01, 0.05 mg/mL; SEQ ID NO: 3-NH2 0.01, 0.05 mg/mL), vs untreated cells): decreased the secretion of IL-8 in a dose-dependent manner but at a lower degree that under inflammatory conditions
telomeres longer than untreated HDFa73 ([4]; 0.005 mg/mL peptide): 17%
telomeres longer than untreated HDFa73 ([4]; 0.01 mg/mL peptide): 30%
Nrf2 translocation into the nuclei [5]: Nrf2 translocation from the cytoplasm to the nuclei in a concentration dependent manner
decrease in levels of TLR2 ([6]; HEKa cells after IFNγ, highest peptide concentration (0.05 mg/mL), 24 hours): 19%
levels of TLR2 ([6]; HEKa cells, 24 hours 10 ng/mL IFNγ, then 0.01 or 0.05 mg/mL peptide for 24 hours): lower the levels of TLR2 after exposure to IFNγ in a dose dependent-manner
levels of catalase ([7]; HEKa cells, 0.005, 0.01 or 0.05 mg/mL peptide, catalase/total protein vs basal): increase the levels of catalase in a dose-dependent manner
increase in levels of catalase ([7]; HEKa cells, highest concentration (0.05 mg/mL), vs basal): 47%
TRF1 intensity [8]: increase in TRF1
TRF1 foci per cell [9]: increase in TRF1
53BP1 foci per cell [10]: decrease in 53BP1 foci
